As usually defined, the EC50 is the concentration that produces a half-maximal response. Read a high EC50 as a less potent agent. Usually Emax stands for the size of the effect at its maximum, as opposed to the concentration needed.

Drawing on US8980906B2, “Pyridonemorphinan analogs and biological activity on opioid receptors” (Purdue Pharma L.P., priority 2012, dated 2015), this text covers EC50 and Emax for eleven molecules.

Assay type in all cases: biochemical
The target of test [1] is T1, μ-opioid receptor (Homo sapiens (Human), UniProt P35372). Description: μ-opioid receptor [35S]GTPγS functional assay, HEK-293 or CHO cells. Here is the method:
(§1) μ-Opioid Receptor Functional Assay Procedures: [^35S]GTPγS functional assays were conducted using freshly thawed μ-receptor membranes prepared in-house from a cell line expressing recombinant μ opioid receptor in a HEK-293, CHO or U-2 OS cell background, or purchased from a commercial source (Perkin Elmer, Shelton, Conn.; or DiscovRx, Fremont, Calif.). Assay reactions were prepared by sequentially adding the following reagents to binding buffer (100 mM NaCl, 10 mM MgCl2, 20 mM HEPES, pH 7.4) on ice (final concentrations indicated): membrane protein (0.026 mg/mL), saponin ([…]), GDP ([…]) and [^35S]GTPγS (0.20 nM; Perkin Elmer, Shelton, Conn.). The prepared membrane solution (190 μl/well) was transferred to 96-shallow well polypropylene plates containing 10 μl of 20× concentrated stock solutions of the agonist [D-Ala^2, N-methyl-Phe^4 Gly-ol^5]-enkephalin (DAMGO) prepared in dimethyl sulfoxide (DMSO). Plates were incubated for 30 min at about 25° C. with shaking. Reactions were terminated by rapid filtration onto 96-well Unifilter GF/B filter plates (Perkin Elmer, Shelton, Conn.) using a 96-well tissue harvester (Perkin Elmer, Shelton, Conn.) followed by three filtration washes with 200 μl of ice-cold wash buffer (10 mM NaH2PO4, 10 mM Na2HPO4, pH 7.4). Filter plates were subsequently dried at 50° C. for 2-3 hours. BetaScint scintillation cocktail (Perkin Elmer, Shelton, Conn.) was added (50 μl/well) and plates were counted using a Packard Top-Count for 1 min/well. Data were analyzed using the sigmoidal dose-response curve fitting functions in GraphPad PRISM v. 3.0, or an in-house function for non-linear, sigmoidal dose-response curve-fitting.
(§2) μ-Opioid Receptor Functional Data: μ GTP EC50 is the concentration of a compound providing 50% of the maximal response for the compound at a μ-opioid receptor.
(§3) μ GTP Emax (%) is the maximal effect elicited by a compound relative to the effect elicited by DAMGO, a standard μ agonist. Generally, the μ GTP Emax (%) value measures the efficacy of a compound to treat or prevent pain or other Conditions.
(§4) In TABLE 2, activity response of certain Compounds of the Invention to the μ-, δ- and κ-opioid receptors was determined as described above for functional assays using HEK-293 or CHO cells.
In general terms: Binding of GTPγS marks nucleotide exchange on a G protein.

The target in test [2] is T2, κ-opioid receptor (Homo sapiens (Human), UniProt P41145). Description: κ-opioid receptor [35S]GTPγS functional assay, HEK-293 or CHO cells. How it is done:
(§5) κ-Opioid Receptor Functional Assay Procedures: Functional [^35S]GTPγS binding assays were conducted as follows. κ opioid receptor membrane solution was prepared by sequentially adding final concentrations of 0.026 μg/μl κ membrane protein (in-house), 10 μg/mL saponin, 3 μM GDP and 0.20 nM [^35S]GTPγS to binding buffer (100 mM NaCl, 10 mM MgCl2, 20 mM HEPES, pH 7.4) on ice. The prepared membrane solution (190 μl/well) was transferred to 96-shallow well polypropylene plates containing 10 μl of 20× concentrated stock solutions of agonist prepared in DMSO. Plates were incubated for 30 min at a temperature of about 25° C. with shaking. Reactions were terminated by rapid filtration onto 96-well Unifilter GF/B filter plates (Perkin Elmer, Shelton, Conn.) using a 96-well tissue harvester (Packard) and followed by three filtration washes with 200 μl ice-cold binding buffer (10 mM NaH2PO4, 10 mM Na2HPO4, pH 7.4). Filter plates were subsequently dried at 50° C. for 2-3 hours. Fifty μl/well scintillation cocktail (Perkin Elmer, Shelton, Conn.) was added and plates were counted in a Packard Top-Count for 1 min/well.
(§6) κ-Opioid Receptor Functional Data: κ GTP EC50 is the concentration of a compound providing 50% of the maximal response for the compound at a κ receptor.
(§7) κ GTP Emax (%) is the maximal effect elicited by a compound relative to the effect elicited by U69,593.
as §4

Test [3] addresses T1, μ-opioid receptor. Description: μ-opioid receptor [35S]GTPγS functional assay, U-2 OS cells. Conditions: for Emax: relative to DAMGO, U-2 OS cells. How it is done:
as §1, §2, §3
(§8) The following TABLE 3 provides results on the activity response of certain Compounds of the Invention at the μ- and κ-opioid receptors determined as described above using U-2 OS cells.

The target of test [4] is T2, κ-opioid receptor. The test is described as follows: κ-opioid receptor [35S]GTPγS functional assay, U-2 OS cells. Conditions: for Emax: relative to U69,593, U-2 OS cells. How it is done:
as §5, §6, §7, §8

`NC(=O)c1cc2c([nH]c1=O)C[C@]13CCN(CCc4ccccc4)[C@H](Cc4ccc(O)cc41)[C@]3(O)C2` [Compound 37, (6R,6aS,12aR)-2,6a-dihydroxy-10-oxo-15-phenethyl-6,6a,7,10,11,12-hexahydro-5H-6,12a-(epiminoethano)naphtho[2,1-g]quinoline-9-carboxamide]: the EC50 is 268 ± 53.1 nM in test [1], > 20000 nM in test [2], 72.7 ± 3.87 nM in test [3] and 374 ± 93.5 nM in test [4]. In addition, the Emax in test [1] (relative to DAMGO, HEK-293 or CHO cells) turned out to be 98 ± 4.62%; in test [2] (relative to U69,593, HEK-293 or CHO cells), 2.5%; in test [3], 71.3 ± 0.33%; in test [4] it was 11.3 ± 1.45%.
As to `CC(C)CCNC(=O)c1cc2c([nH]c1=O)C[C@]13CCN(C)[C@H](Cc4ccc(O)cc41)[C@]3(O)C2` [Compound 49, (6R,6aS,12aR)-2,6a-dihydroxy-N-isopentyl-15-methyl-10-oxo-6,6a,7,10,11,12-hexahydro-5H-6,12a-(epiminoethano)naphtho[2,1-g]quinoline-9-carboxamide], in test [3], the EC50 was determined as 445 ± 63.8 nM and the Emax is 80 ± 3.61%. In test [4], this molecule returned a concentration giving a half-maximal response (EC50) of 204 ± 68.1 nM and an Emax of 63 ± 1.73%.
On to `CN1CC[C@]23Cc4[nH]c(=O)c(C(=O)N5CCCC5)cc4C[C@@]2(O)[C@H]1Cc1ccc(O)cc13` [Compound 48, (6R,6aS,12aR)-2,6a-dihydroxy-15-methyl-9-(pyrrolidine-1-carbonyl)-6a,7,11,12-tetrahydro-5H-6,12a-(epiminoethano)naphtho[2,1-g]quinolin-10(6H)-one], for which the EC50 is 97.4 ± 4.35 nM in test [3] and 226 ± 4.41 nM in test [4]. Besides, the Emax in test [3] was 82.7 ± 0.88%; in test [4], 90.3 ± 5.46%.
On to `O=C(c1ccccc1)c1cc2c([nH]c1=O)C[C@]13CCN(CC4CC4)[C@H](Cc4ccc(O)cc41)[C@]3(O)C2` [Compound 59, (6R,6aS,12R)-9-benzoyl-15-(cyclopropylmethyl)-2,6a-dihydroxy-6,6a,7,12-tetrahydro-5H-6,12a-(epiminoethano)naphtho[2.1-g]quinolin-10(11H)-one], for which, in test [3], the EC50 is > 20000 nM and the Emax worked out at 2.5%. In test [4], this molecule had an EC50 of 17900 ± 7550 nM and an Emax of 16.8 ± 1.44%.
For the molecule `COc1ccc2c(c1)[C@]13CCN(C)[C@H](C2)[C@]1(O)Cc1cc(C(=O)O)c(=O)[nH]c1C3` [Compound 40, (6R,6aS,12aR)-6a-hydroxy-2-methoxy-15-methyl-10-oxo-6,6a,7,10,11,12-hexahydro-5H-6,12a-(epiminoethano)naphtho[2,1-g]quinoline-9-carboxylic acid], in test [3], a half-maximal effect (EC50) was put at 13900 ± 1630 nM and the Emax came out at 72 ± 4.16%. Further, in test [4], the concentration for a half-maximal effect (EC50) was > 20000 nM and the Emax was 96 ± 1.53%.
For `NC(=O)c1cc2c([nH]c1=O)C[C@]13CCN(CCF)[C@H](Cc4ccc(O)cc41)[C@]3(O)C2` [Compound 35, (6R,6aS,12aR)-15-(2-fluoroethyl)-2,6a-dihydroxy-10-oxo-6,6a,7,10,11,12-hexahydro-5H-6,12a-(epiminoethano)naphtho[2,1-g]quinoline-9-carboxamide], in test [3], the EC50 was > 20000 nM and the Emax is 2.5%. In test [4], this molecule displayed an EC50 of 93.7 ± 27.7 nM and an Emax of 66 ± 1.53%.
Consider `NC(=O)c1cc2c([nH]c1=O)C[C@]13CCN(CC(F)(F)F)[C@H](Cc4ccc(O)cc41)[C@]3(O)C2` [Compound 34, (6R,6aS,12aR)-2,6a-dihydroxy-10-oxo-15-(2,2,2-trifluoroethyl)-6,6a,7,10,11,12-hexahydro-5H-6,12a-(epiminoethano)naphtho[2,1-g]quinoline-9-carboxamide], for which, in test [3], the EC50 is > 20000 nM and the Emax turned out to be 8.5%. Moreover, in test [4], the EC50 is > 20000 nM and the Emax stood at 0%.
As for `CN1CC[C@]23Cc4[nH]c(=O)c(C(=O)NCc5ccccc5)cc4C[C@@]2(O)[C@H]1Cc1ccc(O)cc13` [Compound 45, (6R,6aS,12aR)—N-benzyl-2,6a-dihydroxy-15-methyl-10-oxo-6,6a,7,10,11,12-hexahydro-5H-6,12a-(epiminoethano)naphtho[2,1-g]quinoline-9-carboxamide], in test [3], the EC50 is 306 ± 25.2 nM and the Emax is 90 ± 1.53%. In test [4], this molecule returned an EC50 of 128 ± 8.96 nM and an Emax of 94.3 ± 5.61%.
In the same order, the values of `CC(C)C[C@H](NC(=O)c1cc2c([nH]c1=O)C[C@]13CCN(C)[C@H](Cc4ccc(O)cc41)[C@]3(O)C2)C(N)=O` [Compound 52, (6R,6aS,12R)—N—((S)-1-amino-4-methyl-1-oxopentan-2-yl)-2,6a-dihydroxy-15-methyl-10-oxo-6,6a,7,10,11,12-hexahydro-5H-6,12a-(epiminoethano)naphtho[2.1-g]quinoline-9-carboxamide] are 244 ± 10.8 nM, 97.7 ± 1.45%, 3790 ± 1570 nM and 28.8 ± 2.17%.
In test [3], `O=C(c1cc2c([nH]c1=O)C[C@]13CCN(CC4CC4)[C@H](Cc4ccc(O)cc41)[C@@H]3C2)N1CCCC1` [Compound 55, (6R,6aS,12R)-15-(cyclopropylmethyl)-2-hydroxy-9-(pyrrolidine-1-carbonyl)-6,6a,7,12-tetrahydro-5H-6,12a-(epiminoethano)naphtho[2.1-g]quinolin-10(11H)-one] had an EC50 of 0.79 ± 0.31 nM and an Emax of 17.6 ± 0.68%. In test [4], the EC50 came out at 0.33 ± 0.037 nM and the Emax was 86 ± 2.68%.
On to `CN1CC[C@]23Cc4[nH]c(=O)c(C(=O)N5CCC[C@H]5C(N)=O)cc4C[C@@]2(O)[C@H]1Cc1ccc(O)cc13` [Compound 53, (S)-1-((6R,6aS,12R)-2,6a-dihydroxy-15-methyl-10-oxo-6,6a,7,10,11,12-hexahydro-5H-6,12a-(epiminoethano)naphtho[2.1-g]quinoline-9-carbonyl)pyrrolidine-2-carboxamide], for which the values for the EC50 in test [3] and in test [4] were 123 ± 6.15 nM and 602 ± 173 nM, respectively. In addition, the figures for the Emax in test [3] and in test [4] were 84 ± 2.08% and 68.3 ± 3.38%, respectively.
